In patent EP2213288A1 (Welte, Karl, priority 2009, dated 2010):

How the values were obtained:
[1] = test system: promyelocytic leukemia cell line HL-60; test: Myeloid differentiation of HL-60 cells
Description: Granulocytic differentiation was characterized by FACS analysis of cells stained with antibody specific to CD16 (Immunotools), CD15 (BD Pharmigen) or CD11b (BD Pharmigen) and by morphological assessment of Wright-Giemsa-stained cytospin slides. […] We cultured HL-60 cells in the presence of 10 ng ml^-1 human rhG-CSF(Cell systems Biotechnoogy), 10 ng ml^-1 human rhNAMPT (Phoenix Pharmaceuticals) or 0.1µM ATRA (Sigma). For the measurement of NAD^+, 0.5 M ice-cold HClO4 was added to the cells, or cell culture supernatants or plasma; after 2 min, 100µl of supernatants was collected by centrifugation at 3,000g for 5 min, was 20µl K2HPO4 (1 M) added with cooling on ice and adjusted pH to 7.2-7.4 with KOH. 50µl of supernatant was given to the reaction mixture containing 0.1 M sodiumpyrophosphate-semicarbazid (Sigma) (pH 8.8), absolute ethanol and dH2O, NAD^+ spectrophotometrically was assessed at 339 nm at room temperature (25°C) as as mean difference in absorbance before (A1) and 6 min after (A2) addition of alcohol dehydrogenase (Roche).

CD34^+ cells = test: NAMPT inhibition (FK866) or G-CSFR knock-down in G-CSF- or NAMPT-stimulated CD34+ cells
Excerpt: NAMPT is induced by G-CSF, so it was further analyzed whether this enzyme is required for G-CSF-triggered granulopoiesis.
DNA oligonucleotides corresponding to position 642 bp to 660 bp of the human CSF3R gene sequence were chemically synthesized. These nucleotides also contained overhang sequences from a 5' BglII- and a 3'HindIII- restriction sites. The numbering of the first nucleotide of the shRNAs refers to the ATG start codon. The oligonucleotide sequences was as follows […] (Seq. ID No. 3). The oligonucleotides were inserted into the BglII/HindIII-digested pSUPER-derived plasmid to generate pSUPER-CSF3R_642 and verified the isolated clone by DNA sequencing. To generate lentiviral transgenic plasmids containing shRNA expression cassettes located in the U3 region of the […]3'-LTR pRRL,PPT.SF.DsRedEx.pre was used. pRRL.PPT.SF.DsRedEx.pre is a derivative of the standard lentiviral vector pRRL.PPT.PGK, DsRedEx.pre (kindly provided by Luigi Naldini, Milano, Italy) using an internal SFFV promoter. To generate the lentiviral CSF3R_642-SR plasmid, the pSUPER-CSF3R_642 was digested with SmaI and HincII and ligated the resulting DNA fragments (360 bp) into the SnaBI site of the pRRL.PPT.SF.DsRedEx,pre. The lentiviral plasmid encodes RFPEXPRESS as reporter gene.

[2] = Treatment of healthy individuals with vitamin B3, blood cell analysis; type: in vivo, human
[3] = 25-50 mg kg^-1 d^-1, subjects with type 1 diabetes; cited from earlier work
[4] = test system: CD34^+ bone marrow progenitor cells from healthy individuals; test: Granulocytic/myeloid differentiation of cultured CD34+ cells from healthy individuals (FACS, qRT-PCR, ELISA, NAD+ measurement); type: cell-based, human; conditions: FACS analysis; nicotinamide 1 mM or 10 mM; lentiviral transduction MOI 1-2
Description: Bone marrow and peripheral blood mononuclear cells were isolated by Ficoll-Hypaque gradient centrifugation (Amersham Biosciences) and positively selected bone marrow CD34^+ and CD33^+ cells by sequential immunomagnetic labeling with corresponding magnetic cell-sorting beads (Miltenyi Biotech). Peripheral blood PMNs were isolated by Ficoll-Hypaque gradient centrifugation and by subsequent hypotonic lysis of erythrocytes in cell pellet, Cells were counted and viability was assessed by trypan blue dye exclusion. The purity of sorted CD34^+ cells, CD33^+ cells and PMNs was more than 96% as assessed by FACS analysis and by staining with May-Grünwald-Giemsa.
Purified PMNs and CD33^+ cells were cultured in RPMI-1640 medium supplemented with 1% heat-inactivated autologous human serum with or without addition of 10 ng ml^-1 of recombinant human G-CSF (rhG-CSF) (Cell Systems Biotechnology). […] For assessment of G-CSFR protein expression cells were stained with unconjugated antibody to mouse G-CSFR and secondary FITC-conjugated antibody and measured G-CSFR expression by FACS. […] G-CSF protein was measured by G-CSF-specific ELISA from R&D Systems and NAMPT protein by NAMPT specific carboxy-terminal enzyme immunometric assay (Phoenix Pharmaceuticals).

## CC1=C(/C=C/C(C)=C/C=C/C(C)=C/C(=O)O)C(C)(C)CCC1 [ATRA, all-trans-retinoid acid]
[1]; 10 ng ml^-1 rhG-CSF, 10 ng ml^-1 rhNAMPT or 0.1µM ATRA, or lentiviral transduction
  myeloid (granulocytic) differentiation of HL-60 cells: differentiates into granulocytes
[1]; compared with untreated controls
  levels of iNAD^+ as well as mRNAs of SIRT1, C/EBPα and C/EBPβ: Elevated levels

## O=C(/C=C/c1cccnc1)NCCCCC1CCN(C(=O)c2ccccc2)CC1 [FK866]
CD34^+ cells; 1 nM FK866
  cell viability and proliferation: no effect
CD34^+ cells; NAMPT activity inhibited with FK866
  G-CSF induction of C/EBPα or C/EBPβ mRNA expression and G-CSFR mRNA or protein expression: unable to induce
CD34^+ cells; cells pretreated with FK866
  G-CSF or iNAD^+ levels in G-CSF- or NAMPT-stimulated cells: no increase
CD34^+ cells; pretreatment with 1 nM FK866, then G-CSF
  G-CSF-triggered granulocytic differentiation: substantially abrogated

## NC(=O)c1cccnc1 [vitamin B3, nicotinamide]
[2]; 10-20 mg kg^-1 d^-1, within 2 d
  increase in the neutrophilic granulocyte content: up to twofold
[2]; compared with steady-state levels
  iNAD^+ levels in PMNs: Increased
[2]; healthy individuals
  C/EBPα and C/EBPβ mRNA levels in bone marrow CD34^+ cells, CD33^+ cells and in peripheral blood PMNs: upregulation
  CD34^+ hematopoietic progenitor cells in peripheral blood: mobilisation
  Other blood cell lineages: unaffected
  decline of neutrophil numbers to the physiological level after discontinuation: 2-3 d
  time after initiation of treatment at which increased neutrophil numbers were detected: 1 to 2 days
[2]; six healthy individuals, 10 mg per kg per d for 1 week
  numbers of neutrophilic granulocytes: significant increases
[2]; treated healthy individuals
  adverse effects: no adverse effects
[3]
  side effects: no side effects
[4]
  myeloid differentiation of CD34^+ cells: induced myeloid differentiation of CD34^+ cells in a dose-dependent manner
